# Legend:
# TrkA = target: T1, TrkA (Homo sapiens, UniProt P04629); assay: Tyrosine kinase assay (Kinase-Glo or AlphaScreen), TrkA; details: biochemical tyrosine kinase assay
# T1 construct: 6×His- or GST-tagged kinase domain fragments of the corresponding RTKs expressed in baculovirus system; host or cells: baculovirus system
# Procedure: To determine inhibition of several tyrosine kinases, such as IGF1R, InsR, Alk, TrkA and Jak2, kinase assays are conducted using either Kinase-Glo (Promega) or AlphaScreen (PerkinElmer) kinase assay platforms. The Kinase-Glo Luminescent Kinase Assay is a homogeneous method for measuring kinase activity by determining the amount of ATP remaining after a kinase reaction. The luminescent signal is proportional to the amount of ATP and inversely proportional to the amount of kinase activity. Tyrosine kinase PT66 AlphaScreen Assay is a high-sensitivity homogeneous, anti-phosphotyrosine antibody-mediated luminescent proximity method measuring, incorporation of phosphate in synthetic poly(Glu-Tyr) substrate. The kinase preparations used consist of purified recombinant, 6×His- or GST-tagged kinase domain fragments of the corresponding RTKs expressed in baculovirus system.
# The IGF1R tyrosine kinase is assayed in Kinase-Glo ATP depletion assay using the synthetic polymer poly(Glu-Tyr, 4:1) (Sigma Chemicals) as a phosphoacceptor substrate. Each reaction mixture consists of a total volume of 10 μl and contains 40 ng of the enzyme, 5 μg of poly(Glu-Tyr), 10 μM of ATP and variable concentrations of test compounds. The mixtures also contain 50 mM Tris-HCl, pH 7.5; 5 mM MgCl2; 5 mM MnCl2; 2 mM DTT and 0.01% Tween 20. The reaction mixtures are incubated at 37° C. for 60 minutes and residual concentration of ATP in the mixture is determined by adding luciferase-containing Kinase-Glo (Promega) development reagent and counting luminescence levels using Fusion Universal Microplate Analyzer (PerkinElmer). Tested compounds are dissolved in dimethyl sulfoxide to a stock concentration of 10 mM and are typically evaluated in the assay at eight concentrations in 1 nM to 20 μM range, each in quadruplicate. […] IC50 values are derived by non-linear regression analysis using Prism 3.0 software (Graphpad Software). Other tyrosine kinases are assayed according to the same protocol after titrating amount of the enzyme to provide optimal signal-to-noise ratio and no more than 30% of total ATP consumption in the reaction conditions used.
# The IGF1R tyrosine kinase is assayed in Phosphotyrosine (PT66 or PT 100) AlphaScreen chemiluminescent assay (PerkinElmer) according to the manufacturerer's recommendations. Each kinase reaction mixture consists of a total volume of 15 μl and contains 0.1-1 ng of the enzyme, 7 ng of biotinylated poly(Glu-Tyr) (Cis-Bio), 10 μM of ATP and variable concentrations of test compounds. The mixtures also contain 50 mM Tris-HCl, pH 7.5; 5 mM MgCl2; 5 mM MnCl2; 2 mM DTT and 0.01% Tween 20. The reaction mixtures are incubated at room temperature for 30 minutes. Ten (10) μl of the mixture of […] and donor beads (as supplied by the manufacturer) is then added to the reaction and the incubation is continued for an additional 60 minutes.
# Alk = target: T2, Alk (Homo sapiens, UniProt Q9UM73); assay: Tyrosine kinase assay (Kinase-Glo or AlphaScreen), Alk; details: biochemical tyrosine kinase assay
# T2 construct: 6×His- or GST-tagged kinase domain fragments of the corresponding RTKs expressed in baculovirus system; host or cells: baculovirus system
# T2 sequence (Q9UM73 1116-1392 limits assumed, species assumed): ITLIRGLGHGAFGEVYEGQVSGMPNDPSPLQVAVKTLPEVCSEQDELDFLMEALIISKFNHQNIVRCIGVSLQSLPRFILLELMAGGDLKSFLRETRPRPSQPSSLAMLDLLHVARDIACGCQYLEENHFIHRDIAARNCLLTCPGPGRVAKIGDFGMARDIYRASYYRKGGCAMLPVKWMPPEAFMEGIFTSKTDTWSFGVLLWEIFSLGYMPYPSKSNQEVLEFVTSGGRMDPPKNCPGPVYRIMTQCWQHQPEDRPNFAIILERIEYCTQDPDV
# Outline: (§1)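 Luminescence of remaining ATP (Kinase-Glo) or anti-phosphotyrosine AlphaScreen proximity signal served as read-out. Reactions held purified tagged kinase domain, poly(Glu-Tyr) substrate and 10 μM ATP at pH 7.5. IC50 values came from non-linear regression fits.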
# Karpas-299 = assay: Cell proliferation inhibition, Cell Titer-Glo, Karpas-299; type: cell-based; details: Homo sapiens; cell proliferation assay, Karpas-299 cells
# Outline: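 Karpas 299 cells were seeded into white, clear-bottomed 384-well culture plates at 2500-5000 cells per well and exposed to serial dilutions of test compounds for about 3 days. Viable cell numbers were then measured with the Cell Titer-Glo Luminescent Cell Viability Assay (Promega), which detects total ATP, and IC50 values for proliferation inhibition were derived.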
# K562 = assay: Cell proliferation inhibition, Cell Titer-Glo, K562; type: cell-based; details: Homo sapiens; cell proliferation assay, K562 cells
# Outline: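 K562 cells were seeded at 2500-5000 cells per well in white, clear-bottomed 384-well culture plates and treated with dilutions of test compounds for typically 3 days. Viable cells were quantified with the Cell Titer-Glo Luminescent Cell Viability Assay (Promega), which measures total ATP, read on a luminescence plate reader to derive IC50 values for proliferation inhibition.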
# Ba/F3 = assay: Cell proliferation inhibition, Cell Titer-Glo, Ba/F3; type: cell-based; details: Mus musculus, BaF3; cell proliferation assay, Ba/F3 cells
# Outline: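 Ba/F3 cells were seeded at 2500-5000 cells per well in white, clear-bottomed 384-well culture plates and exposed to serial dilutions of test compounds for 3 days. Cell Titer-Glo Luminescent Cell Viability Assay (Promega) reagent, which measures total ATP as an indicator of metabolic activity, was added. Luminescence was read on a multiwell plate reader to derive IC50 values for inhibition of proliferation.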
# H929 (multiple myeloma) = assay: Cell proliferation inhibition, Cell Titer-Glo, H929; type: cell-based; details: Homo sapiens, NCI-H929; cell proliferation assay, H929 cells
# Outline: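 Cells seeded at 2500-5000 per well with serially diluted compound for typically 3 days. Viable cells measured by ATP luminescence (Cell Titer-Glo); IC50 from proliferation-inhibition curves.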
# Jak2 = target: T3, Jak2 (Homo sapiens, UniProt O60674); assay: Tyrosine kinase assay (Kinase-Glo or AlphaScreen), Jak2; details: biochemical tyrosine kinase assay
# T3 construct: 6×His- or GST-tagged kinase domain fragments of the corresponding RTKs expressed in baculovirus system; host or cells: baculovirus system
# T3 sequence (O60674 849-1124 limits assumed, species assumed): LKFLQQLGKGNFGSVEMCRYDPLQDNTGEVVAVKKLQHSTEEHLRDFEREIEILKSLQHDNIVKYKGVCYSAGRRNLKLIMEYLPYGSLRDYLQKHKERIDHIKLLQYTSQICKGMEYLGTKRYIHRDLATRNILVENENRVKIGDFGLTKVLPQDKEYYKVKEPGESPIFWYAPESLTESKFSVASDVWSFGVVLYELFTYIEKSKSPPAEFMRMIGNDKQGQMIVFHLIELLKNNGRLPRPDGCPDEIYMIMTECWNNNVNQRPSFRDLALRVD
# Outline: as §1
# IGF1R tyrosine kinase = target: T4, IGF1R tyrosine kinase (Homo sapiens, UniProt P08069); assay: IGF1R tyrosine kinase assay (Kinase-Glo ATP depletion or PT66/PT100 AlphaScreen); details: biochemical tyrosine kinase assay
# T4 construct: 6×His- or GST-tagged kinase domain fragments of the corresponding RTKs expressed in baculovirus system; host or cells: baculovirus system
# T4 sequence (P08069 999-1274 limits assumed): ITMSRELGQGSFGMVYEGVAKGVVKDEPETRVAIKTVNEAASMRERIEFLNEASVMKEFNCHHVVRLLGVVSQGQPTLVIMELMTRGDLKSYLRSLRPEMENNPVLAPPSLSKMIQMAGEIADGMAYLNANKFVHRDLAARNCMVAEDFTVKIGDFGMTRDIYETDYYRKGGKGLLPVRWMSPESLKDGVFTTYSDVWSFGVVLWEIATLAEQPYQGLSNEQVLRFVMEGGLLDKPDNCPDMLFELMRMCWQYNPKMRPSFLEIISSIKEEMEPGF
# Outline: as §1
# InsR = target: T5, InsR (Homo sapiens, UniProt P06213); assay: Tyrosine kinase assay (Kinase-Glo or AlphaScreen), InsR; details: biochemical tyrosine kinase assay
# T5 construct: 6×His- or GST-tagged kinase domain fragments of the corresponding RTKs expressed in baculovirus system; host or cells: baculovirus system
# T5 sequence (P06213 1023-1298 limits assumed, species assumed): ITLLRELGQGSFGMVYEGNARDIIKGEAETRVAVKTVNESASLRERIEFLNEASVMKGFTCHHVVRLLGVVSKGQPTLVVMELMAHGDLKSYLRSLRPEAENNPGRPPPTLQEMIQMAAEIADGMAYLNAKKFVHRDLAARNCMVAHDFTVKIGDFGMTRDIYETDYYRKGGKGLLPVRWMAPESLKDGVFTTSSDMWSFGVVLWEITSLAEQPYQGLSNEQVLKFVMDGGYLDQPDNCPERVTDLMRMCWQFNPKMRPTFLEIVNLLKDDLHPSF
# Outline: as §1
# MM1s = assay: Cell proliferation inhibition, MTT assay, MM1s; type: cell-based; details: Homo sapiens, MM1.S, 72 h, MM1S multiple myeloma cells, 3-day proliferation
# Source text: (§2) IGF1R and other tyrosine kinase inhibitors can inhibit the proliferation of certain cancer cell lines indicating their possible therapeutic utility for treating the corresponding cancer types. Cancer cell lines of interest and control normal lines, including CHO, HEK293, BA/F3, COLO205, PC3, DU145, MCF7, Panc1, ACHN, Hep G2, H460, K562, TT, U87-MG, CAOV-3, SK-MEL5, Karpas 299 and human multiple myeloma cell lines H929, MM1s, MM1r, UTMC2, CPM2, KMS11, My5, KMS12PE, My7, JJN3, KMS18, U266, SKMM2, RPMI-8226 are plated in white, clear-bottomed 384-well cell culture plates at 2500-5000 cells per well and supplied with dilutions of tested compounds After a desired period of time (typically 3 days), the number of viable cells is quantitated by using Cell Titer-Glo Luminescent Cell Viability Assay (Promega), a cell proliferation assay system based on detection of total amount of ATP present as a measure of cell metabolic activity. The plated cells are mixed with the Cell Titer-Glo developing reagent and counted in a luminescence multiwell plate reader according to the standard manufacturer's protocol to generate IC50 curves for cell proliferation inhibition. Results are typically reported as percent of growth (% viability =(OD72h(compound)−ODday0))/(OD72h(no compound)−ODday0). Alternatively, viable cells are quantitated by using the conventional colorimetric MTT assay. The MTT assay is based on the cleavage of the yellow tetrazolium salt MTT to purple formazan crystal by metabolic active cells. The formazan is then solubilized, and the concentration determined by optical density at 570 nm. The cells plated and incubated with a compound as described above are supplemented with the solution of MTT and incubated for 2-3 hours. The growth medium is removed and dimethyl sulfoxide is added into each well to dissolve the formazan. The absorbance is measured on an ELISA plate reader with a test wavelength of 570 nm and a background subtraction wavelength of 630 nm to obtain sample signal (OD570-OD630). […] The results are reported in terms of IC50 value for a particular compound and a cell line in the standard 3-day proliferation assay using Cell Titer-Glo. […] The results are reported in terms of IC50 value for a particular compound and a cell line in the standard 3-day proliferation assay using MTT assay.
# CPM2 = assay: Cell proliferation inhibition, MTT assay, CPM2; type: cell-based; details: Homo sapiens, Multiple myeloma cell, 72 h, CPM2 multiple myeloma cells, 3-day proliferation
# Source text: as §2
# [1] = tested on: HEK293 (human normal embryonic kidney); assay: Cell proliferation inhibition, MTT assay, HEK293; type: cell-based; details: 72 h, HEK293 cells, 3-day proliferation, read-out: HEK IC50
# Source text: as §2
# KMS11 = assay: Cell proliferation inhibition, MTT assay, KMS11; type: cell-based; details: Homo sapiens, KMS-11, 72 h, KMS11 multiple myeloma cells, 3-day proliferation
# Source text: as §2
# [2] = tested on: CHO (chinese hamster ovary); assay: Cell proliferation inhibition, MTT assay, CHO; type: cell-based; details: Cricetulus griseus, 72 h, CHO cells, 3-day proliferation
# Source text: as §2
# MM1r = assay: Cell proliferation inhibition, MTT assay, MM1r; type: cell-based; details: Homo sapiens, MM.1R, 72 h, MM1R multiple myeloma cells, 3-day proliferation
# Source text: as §2
# UTMC2 = assay: Cell proliferation inhibition, MTT assay, UTMC2; type: cell-based; details: Homo sapiens, 72 h, UTMC2 multiple myeloma cells, 3-day proliferation
# Source text: as §2
# H929 = assay: Cell proliferation inhibition, MTT assay, H929; type: cell-based; details: Homo sapiens, NCI-H929, 72 h, H929 multiple myeloma cells, 3-day proliferation
# Source text: as §2
# T1 sequence (P04629 510-781 limits assumed, species assumed): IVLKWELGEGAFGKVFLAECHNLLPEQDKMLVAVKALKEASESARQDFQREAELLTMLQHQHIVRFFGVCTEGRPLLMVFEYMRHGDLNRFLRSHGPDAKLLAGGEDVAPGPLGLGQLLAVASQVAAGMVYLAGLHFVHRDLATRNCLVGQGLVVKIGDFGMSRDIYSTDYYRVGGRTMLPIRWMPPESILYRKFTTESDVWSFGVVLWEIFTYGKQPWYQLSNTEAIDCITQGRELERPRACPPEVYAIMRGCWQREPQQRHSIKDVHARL
SMILES,IC50 (TrkA) [nM],IC50 (Alk) [nM],IC50 (Karpas-299) [nM],IC50 (K562) [nM],IC50 (Ba/F3) [nM],IC50 (H929 (multiple myeloma)) [nM],IC50 (Jak2) [nM],IC50 (IGF1R tyrosine kinase) [nM],IC50 (InsR) [nM],IC50 (MM1s) [nM],IC50 (MM1r) [nM],IC50 (H929) [nM],IC50 (CPM2) [nM],IC50 [1] [nM],IC50 (KMS11) [nM],IC50 [2] [nM],IC50 (UTMC2) [nM]
Cc1c(Cl)cccc1OC[C@H](O)CNc1cc[nH]c(=O)c1-c1nc2cc3c(cc2[nH]1)C(=O)N(C1CCN(CCCO)CC1)C3=O [compound 135],< 500,500 to 5000,> 15000,> 15000,> 15000,> 15000,500 to 5000,< 500,500 to 5000,–,–,–,–,–,–,–,–
CN1CCC(N2Cc3cc4nc(-c5c(NC[C@@H](O)COc6c(F)ccc(Cl)c6F)cc[nH]c5=O)[nH]c4cc3C2=O)CC1 [compound 134],< 500,5000 to 15000,–,–,–,–,< 500,< 500,< 500,–,–,–,–,–,–,–,–
CCc1cc2c(cc1OCC(=O)CNc1cc[nH]c(=O)c1-c1nc3cc4c(cc3[nH]1)C(=O)N(C1CCN(C)CC1)C4)OCO2 [drawing 842],–,–,–,–,–,–,–,–,–,< 500,1000 to 5000,500 to 1000,1000 to 5000,≥ 20000,1000 to 5000,≥ 20000,< 500

# The next lines start with results.
IC50 (TrkA) [nM],IC50 (Alk) [nM],IC50 (Karpas-299) [nM],IC50 (K562) [nM],IC50 (Ba/F3) [nM],IC50 (H929 (multiple myeloma)) [nM],IC50 (Jak2) [nM],IC50 (IGF1R tyrosine kinase) [nM],IC50 (InsR) [nM],IC50 (MM1s) [nM],IC50 (MM1r) [nM],IC50 (H929) [nM],SMILES,IC50 (CPM2) [nM],IC50 [1] [nM],IC50 (KMS11) [nM],IC50 [2] [nM],IC50 (UTMC2) [nM]
–,–,–,–,–,–,–,–,–,< 500,500 to 1000,< 500,Cc1ccc(OCC(=O)CNc2cc[nH]c(=O)c2-c2nc3cc4c(cc3[nH]2)CN(C2CCN(C)CC2)C4=O)c(C)c1 [drawing 838],1000 to 5000,≥ 20000,1000 to 5000,≥ 20000,500 to 1000
–,–,–,–,–,–,–,–,–,500 to 1000,1000 to 5000,500 to 1000,COc1ccc(OCC(=O)CNc2cc[nH]c(=O)c2-c2nc3cc4c(cc3[nH]2)C(=O)N(C2CCN(C)CC2)C4)c(Cl)c1 [drawing 843],1000 to 5000,≥ 20000,1000 to 5000,≥ 20000,< 500
